Data reported in PubChem BioAssay AID1949 (Southern Research Institute, 2009).
Values after ≈ are worked out from the molar mass of the structure shown. Records with an inconclusive call do not appear. Active and inactive are the calls of the source. No rule for the calls is given here.

System: M. tuberculosis H37Rv growth inhibition
Assay: Mycobacterium tuberculosis H37Rv growth inhibition, cell based, confirmatory dose response (AID 1949);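 also: bacteria grown 7 days with compound before Alamar blue readout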

Compound | IC50
COc1ccc(C)cc1NC(=O)c1ccc(Cc2ccc(C)cc2)o1 | 2.71 µg/mL (≈ 8.08 µM)
COc1ccc(OCC(=O)Nc2cccc(-c3nc4ccccc4c(=O)o3)c2)cc1 | 37.1 µg/mL (≈ 92.2 µM)
CCOc1ccc(NC(=O)CSc2nnc(-c3ccccc3Cl)o2)cc1 | 3.35 µg/mL (≈ 8.59 µM)
O=C(NC1CCCCC1)N1CCN(Cc2ccc3c(c2)OCO3)CC1 | 0.39 µg/mL (≈ 1.13 µM)
CN1CCN(c2ccc(NC(=O)c3cccc(OCc4ccccc4)c3)cc2)CC1 | 21.4 µg/mL (≈ 53.2 µM)
O=C(Nc1cccnc1)c1ccc2c(c1)C1C3CCC(C3)C1C(c1ccccc1)N2 (stereo not drawn) | 37.5 µg/mL (≈ 94.8 µM)
Cc1ccc(OCC(=O)c2ccc(C)cc2)cc1 | 50 µg/mL (≈ 208 µM)
Cc1cc(Cl)ccc1OCC(=O)Nc1ccc(N2CCN(C)CC2)c(Cl)c1 | 5.62 µg/mL (≈ 13.8 µM)
c1ccc(CCNc2nc(-c3ccccn3)cs2)cc1 | 0.4 µg/mL (≈ 1.42 µM)
O=[N+]([O-])c1cccc(NC(=S)Nc2ccc(Cl)c(C(F)(F)F)c2)c1 | 2.62 µg/mL (≈ 6.97 µM)
N#Cc1c(SCC(=O)OCc2ccccc2)nsc1SCC(=O)OCc1ccccc1 | 8.73 µg/mL (≈ 18.6 µM)
Clc1cccc(Nc2nc(NCc3ccco3)c3ccccc3n2)c1 | 1.05 µg/mL (≈ 2.99 µM)
CCCNc1nc(Nc2ccc(C)cc2)nc(N2CCOCC2)n1 | 7.71 µg/mL (≈ 23.5 µM)
Cc1ccc(N2CC(C(=O)OCc3cccc(C(=O)Oc4ccccc4)c3)CC2=O)cc1 (stereo not drawn) | > 50 µg/mL (inactive)
Cc1ccc(-c2cc(C(F)F)n3ncc(C(=O)N4CCc5ccccc5C4)c3n2)cc1 | 38.3 µg/mL (≈ 91.6 µM)
CCc1cccc(NC(=O)c2ccc3ccccc3n2)c1 | 11.4 µg/mL (≈ 41.1 µM)
Cc1ccc(OCC(=O)NC23CC4CC(CC(C4)C2)C3)cc1C | 3.77 µg/mL (≈ 12 µM)
O=[N+]([O-])c1ccc(N2CCN(C(=S)NCc3ccc(Cl)cc3)CC2)cc1 | 2.58 µg/mL (≈ 6.6 µM)
COc1ccccc1NC(=O)c1cnc(SC)nc1 | 3.97 µg/mL (≈ 14.4 µM)
CCc1ccc(NC(=S)Nc2ccc(Cl)c(Cl)c2)cc1 | 1.38 µg/mL (≈ 4.24 µM)

Compound | IC50
CCN(CC)c1ccc(NC(=S)NCCc2ccc(OC)c(OC)c2)cc1 | 1.68 µg/mL (≈ 4.33 µM)
CSc1ncnc2c1ncn2CC(=O)Nc1ccc(C)c(C)c1 | < 0.1 µg/mL
CCOC(=O)CSc1nnc2c3sc4nc(N5CCOCC5)c5c(c4c3ncn12)CC(C)(C)OC5 | 1.33 µg/mL (≈ 2.58 µM)
FC(F)(F)c1nnc2n1Nc1nc3ccccc3nc1S2 | 4.52 µg/mL (≈ 14.6 µM)
Cc1ccc(-c2csc(Nc3ccc(C(=O)O)c(O)c3)n2)cc1 | 1.46 µg/mL (≈ 4.47 µM)
Cc1ccc(OCC(=O)c2ccc(F)cc2)cc1C | 2.46 µg/mL (≈ 9.52 µM)
O=[N+]([O-])c1ccc(NC(=S)NCc2ccc(F)cc2)cc1 | 4.86 µg/mL (≈ 15.9 µM)
CC12CC3CC(C)(C1)CC(C(=O)Nc1nc4ccccc4s1)(C3)C2 | 0.24 µg/mL (≈ 0.705 µM)
O=C(Nc1ccc(F)c(Cl)c1)C1CC2CCCC(C1)C2=O (stereo not drawn) | 39.7 µg/mL (≈ 128 µM)
O=C(CS(=O)(=O)c1ccc2ccccc2c1)Nc1ccccc1Cl | 4.48 µg/mL (≈ 12.5 µM)
CCOC(=O)Cc1c(C)nc2c(-c3cccc(Br)c3)c[nH]n2c1=O | 1.69 µg/mL (≈ 4.33 µM)
Cc1ccc(OCC(=O)c2ccc(Cl)cc2)cc1C | 17.6 µg/mL (≈ 64.1 µM)
COc1cccc(OCCN2CCN(c3ncnc4sc5c(c34)CCCC5)CC2)c1 | 29 µg/mL (≈ 68.2 µM)
CCOC(=O)COc1ccc2c(c1)c(C(C)=O)c(C)n2Cc1ccccc1 | 24.9 µg/mL (≈ 68.2 µM)
CCc1ccc(OCC(=O)NC2CCCCC2)c(Br)c1 | > 50 µg/mL (inactive)
O=C(Nc1ccc(Cl)c(C(F)(F)F)c1)c1ccc2c(c1)OCO2 | > 50 µg/mL (inactive)
O=C(Nc1nc2ccccc2[nH]1)c1ccc(Br)cc1 | 14.5 µg/mL (≈ 46 µM)
Cc1cc(C(=O)Oc2ccc(Cc3ccccc3)cc2)ccc1[N+](=O)[O-] | 2.23 µg/mL (≈ 6.42 µM)
CCN(CC)c1ccc(NC(=O)C23CC4CC(CC(C4)C2)C3)cc1 | > 50 µg/mL (inactive)
CCCCc1ccc(NC(=S)NC(=O)c2ccc(OCC)c(Cl)c2)cc1 | 0.34 µg/mL (≈ 0.87 µM)

Compound | IC50
CC1CCN(c2ccc(NC(=O)c3ccc([N+](=O)[O-])o3)cc2)CC1 | 0.31 µg/mL (≈ 0.941 µM)
COc1ccc(Nc2nc(-c3ccccn3)cs2)c(OC)c1 | < 0.1 µg/mL
CCOC(=O)c1c(C)n(-c2ccc(C)cc2)c2ccc(O)c(CN(C)C)c12 | 10.9 µg/mL (≈ 29.6 µM)
CCCc1ccc(OCC(=O)Nc2ccc(Cl)cc2Cl)cc1 | 2.86 µg/mL (≈ 8.46 µM)
O=[N+]([O-])/C=C/c1ccc(-c2ccccc2C(F)(F)F)o1 | 4.61 µg/mL (≈ 16.3 µM)
O=C(CCNc1ccc(F)c(Cl)c1)c1cccs1 | 4.3 µg/mL (≈ 15.2 µM)
O=C1OCCC1Sc1cccc2cccnc12 (stereo not drawn) | 7.31 µg/mL (≈ 29.8 µM)
Cc1cc(C)cc(NC(=O)COc2cccc(C=O)c2)c1 | 3.3 µg/mL (≈ 11.6 µM)
CC(C)COc1ccc(CNC(=S)NCc2ccccc2)cc1 | 4.39 µg/mL (≈ 13.4 µM)
CCC(=O)N1CCN(c2ccc(Cl)cc2NC(=O)CC23CC4CC(CC(C4)C2)C3)CC1 | 6.98 µg/mL (≈ 15.7 µM)
O=C(NC1CC1c1ccccc1)C12CC3CC(CC(C3)C1)C2 (stereo not drawn) | 14.6 µg/mL (≈ 49.5 µM)
Clc1ccc(OCCn2ccnc2)c2ccccc12 | 3.99 µg/mL (≈ 14.6 µM)
CCN(CC)S(=O)(=O)c1ccc(Cl)c(C(=O)Oc2cccc3cccnc23)c1 | 2.45 µg/mL (≈ 5.85 µM)
Cc1cccc(-n2c(N)cc(=O)nc2SCC(=O)Nc2nc(-c3ccccc3)cs2)c1 | 3.08 µg/mL (≈ 6.85 µM)
O=[N+]([O-])/C=C/c1cccn1-c1ccc(Cl)cc1 | 9.66 µg/mL (≈ 38.8 µM)
Fc1ccc(CCNC(=S)Nc2ccc(Nc3ccccc3)cc2)cc1 | > 50 µg/mL (inactive)
CCOC(=O)c1cc(-c2ccc(/C=C/[N+](=O)[O-])o2)ccc1Cl | > 50 µg/mL (inactive)
O=[N+]([O-])c1ccccc1C1Nc2ccc(Cl)cc2C2C=CCC21 (stereo not drawn) | 10.5 µg/mL (≈ 32.3 µM)
